In brackets after ≈: the same amount, converted by molar mass.

In assay [1] the test system is Salmonella enterica subsp. enterica. The experiment in a line: Antibacterial activity against blaCMY-expressing Salmonella enterica subsp. enterica serovar Newport isolated from food animals. Type of assay: functional.
For assay [2] the test system is unchanged. As to the kind of experiment: Antibacterial activity against susceptible Salmonella enterica subsp. enterica serovar Newport isolated from food animals. The class given is functional, organism-based.
Assay [3] has the same test system. The experiment in a line: Antibacterial activity against aacC-expressing Salmonella enterica subsp. enterica serovar Newport isolated from food animals. The class given is functional, organism-based.

The compound `CO/N=C(\C(=O)N[C@@H]1C(=O)N2C(C(=O)O)=C(CSc3nc(=O)c(O)nn3C)CS[C@H]12)c1csc(N)n1` [CEFTRIAXONE] returned an MIC in assay [1] of 16 µg/mL (≈ 28.9 µM).
Take GENTAMICIN: the minimum inhibitory concentration (MIC) is less than 0.25 µg/mL in assay [2] and 1 µg/mL in assay [3].

What is called MIC is the lowest concentration that inhibits growth of the organism. A lower MIC goes with a more susceptible organism.

The values are drawn from ChEMBL document CHEMBL1151467, “Antimicrobial resistance genes associated with Salmonella enterica serovar newport isolates from food animals” (2008).
